Key:
[1] = target: T1, CFTR (ΔF508 homozygous CF-HBE cells) (Homo sapiens, UniProt P13569, DEL508-508); experiment: TECC24 AUC fold over DMSO @10 uM: CFTR-mediated transepithelial chloride transport in primary CF-HBE cells; assay type: cell-based; conditions: 10 μM test agent, 48 hours, forskolin-stimulated IEQ AUC divided by vehicle AUC
T1 construct: Primary human bronchial epithelial cells from a ΔF508 homozygous CF donor; host or cells: primary CF-HBE cells (ΔF508/ΔF508 donor)
Description: Example 37: TECC24 AUC Fold Over DMSO @10 uM
The effects of a test agent on CFTR-mediated transepithelial chloride transport was measured using TECC24 recording analysis. Test agents were solubilized in DMSO. Solubilized test agents were mixed with incubation medium containing DMEM/F12, Ultroser G (2%; Crescent Chemical, catalog #67042), Hyclone Fetal Clone 11(2%; GE Healthcare, catalog #SH30066.02), bovine brain extract (0.25%; Lonza, catalog #CC-4098), insulin (2.5 μg/mL), IL-13 (10 ng/mL), hydrocortisone (20 nM), transferrin (2.5 μg/mL), triiodothyronine (500 nM), ethanolamine (250 nM), epinephrine (1.5 μM), phosphoethanolamine (250 nM), and retinoic acid (10 nM). Primary human bronchial epithelial cells from a ΔF508 homozygous CF donor (CF-HBE cells; from University of North Carolina Cystic Fibrosis Tissue Procurement Center), grown on Transwell HTS 24-well cell culture inserts (Costar, catalog #3378), were exposed to test agents or controls dissolved in incubation medium. The CF-HBE cells were cultured at 36.5° C. for 48 hours before TECC24 recordings were performed in the presence or absence of test agent, a positive control or vehicle (DMSO).
Following incubation, the transwell cell culture inserts containing the test agent or control-treated CF-HBE cells were loaded onto a TECC24 apparatus (TECC v7 or MTECC v2; EP Design) to record the transepithelial voltage (VT) and resistance (TEER) using 4 AgCl electrodes per well configured in current-clamp mode. The apical and basolateral bath solutions both contained (in mM) 140 NaCl, 5 KCl, 2 CaCl2, 1 MgCl2, 10 Hepes, and 10 glucose (adjusted to pH 7.4 with NaOH). To inhibit basal Na+ absorption, the ENaC inhibitor benzamil (10 μM) was added to the bath. Then, the adenylate cyclase activator, forskolin (10 μM), was added to the bath to activate CFTR. The forskolin-stimulated Cl— transport was halted by addition of CFTR inhibitor-172 (20 μM) to the bath at the end of the experiment to confirm specificity. VT and TEER recordings were digitally acquired at routine intervals using TECC or MTECC software (EP Design). VT and TEER were transformed into equivalent transepithelial Cl-current (IEQ), and the Area Under the Curve (AUC) of the IEQ time course between forskolin and CFTR inhibitor-172 addition is generated using Excel (Microsoft). Efficacy is expressed as the ratio of the test agent AUC divided by vehicle AUC. EC50s based on AUC are generated using the non-linear regression log(agonist) vs. response function in Prism software (GraphPad) with Hill Slope fixed=1.
If a test agent increased the AUC of the forskolin-stimulated IEQ relative to vehicle in CF-HBE cells, and this increase was inhibited by CFTR inhibitor-172, then the test agent was considered a CFTR corrector.

[2] = target: T2, human Cystic Fibrosis Transmembrane Conductance Regulator (CFTR) harboring the ΔF508 mutation (Homo sapiens, UniProt P13569, DEL508-508); experiment: H441 cell Emax and EC50: HRP-tagged ΔF508-CFTR cell-surface luminescence assay; assay type: cell-based; conditions: H441 cells expressing HRP-tagged ΔF508-CFTR, 27° C. for two nights; for EC50: 15-point dose-response; for Emax: NCI-H441, % of maximum VX809 signal
T2 construct: expressed in transfected cells; host or cells: H441 carcinoma cell line (G418 selection)
Text: Example 36: H441 Cell Emax and EC50
Two cell lines were used, the H441 carcinoma line and the CFHBE41o− (41o−) human bronchial epithelial line. Both cell lines expressed human Cystic Fibrosis Transmembrane Conductance Regulator (CFTR) harboring the ΔF508 mutation and with an in-frame fusion in CFTR extracellular loop 4 of Horse Radish Peroxidase (HRP) under control of the CMV promoter. In the presence of the HRP tag, ΔF508-CFTR transported to the cell surface was detectable upon addition of an HRP substrate (Luminata Forte). Both cell types were cultivated at 37° C. with CO2.
For both cell types, the medium was changed every other day unless the culture was at low % confluence. Cells were used for the assays at ˜75% confluence.
DMSO/Compound Dilutions Plate for 15-Point Dose-Response Testing
To a polypropylene (PP) 384-well plate, 15 μls DMSO was added to all wells in columns 1-22 and 24 (low Control). 15 μls of 260 μM VX809 (Lumacaftor), Selleckchem S1565, was added to column 23 wells (high Control). 15 μls of 10 mM test compound or VX809 (control) were added to wells of row A. Serial dilutions of Row A compound were performed 2×15 μls in rows A through 0 (15-point).
A PP, 384-well plate containing the appropriate cell culture medium was prepared for each assay plate with 100 μls per well. For the doxycycline-induced 41o− cells, doxycycline for both the assay plate and the medium dilution plate was added at 0.0005 mg/ml to the medium.
Both cell lines were plated for the assay at 30 μls per 384-well at 3.4×10^e5 cells per ml (˜10K cells/well). H441 cells were plated on opaque, white, Corning plate 3704. 41o− cells were plated on collagen-coated opaque, white, Corning plate 356665. For 41o− cells, doxycycline was added to the medium.
Compound Addition/Assay Incubation
Using FX (Beckman) protocol, 10 μls diluted compound or medium was added per well to the Assay Plate as: 2 μls DMSO Dilution plate well is diluted in 100 μls of the Medium Dilution Plate well, mixed, and 10 μls is transferred to the Assay Plate.
The final assay dilution series is 24.5, 12.3, 6.1, 3.1, 1.5, 0.8, 0.4, 0.2, 0.1, 0.05, 0.02, 0.01, 0.006, 0.003, 0.001 and 0 μM. The 41o− assay plates were incubated at 37° C. w/CO2, the H441 assay plates were incubated at 27° C. w/CO2, each overnight for two nights.
Assay Result Determination
After being brought to room temperature, the assay plate liquid was removed. 30 uls of Luminata Forte (Millipore ELLUF0100) was added per well and incubated at room temperature for 10 min. The plates were then read on a Topcount, protocol LumiMatti (CPS, luminescence). The data was analyzed for % of maximum, maximum VX809 signal, and EC50 using Pearl and SPEED tools.

T1 sequence (P13569 with tags, fused parts or gaps DEL508-508): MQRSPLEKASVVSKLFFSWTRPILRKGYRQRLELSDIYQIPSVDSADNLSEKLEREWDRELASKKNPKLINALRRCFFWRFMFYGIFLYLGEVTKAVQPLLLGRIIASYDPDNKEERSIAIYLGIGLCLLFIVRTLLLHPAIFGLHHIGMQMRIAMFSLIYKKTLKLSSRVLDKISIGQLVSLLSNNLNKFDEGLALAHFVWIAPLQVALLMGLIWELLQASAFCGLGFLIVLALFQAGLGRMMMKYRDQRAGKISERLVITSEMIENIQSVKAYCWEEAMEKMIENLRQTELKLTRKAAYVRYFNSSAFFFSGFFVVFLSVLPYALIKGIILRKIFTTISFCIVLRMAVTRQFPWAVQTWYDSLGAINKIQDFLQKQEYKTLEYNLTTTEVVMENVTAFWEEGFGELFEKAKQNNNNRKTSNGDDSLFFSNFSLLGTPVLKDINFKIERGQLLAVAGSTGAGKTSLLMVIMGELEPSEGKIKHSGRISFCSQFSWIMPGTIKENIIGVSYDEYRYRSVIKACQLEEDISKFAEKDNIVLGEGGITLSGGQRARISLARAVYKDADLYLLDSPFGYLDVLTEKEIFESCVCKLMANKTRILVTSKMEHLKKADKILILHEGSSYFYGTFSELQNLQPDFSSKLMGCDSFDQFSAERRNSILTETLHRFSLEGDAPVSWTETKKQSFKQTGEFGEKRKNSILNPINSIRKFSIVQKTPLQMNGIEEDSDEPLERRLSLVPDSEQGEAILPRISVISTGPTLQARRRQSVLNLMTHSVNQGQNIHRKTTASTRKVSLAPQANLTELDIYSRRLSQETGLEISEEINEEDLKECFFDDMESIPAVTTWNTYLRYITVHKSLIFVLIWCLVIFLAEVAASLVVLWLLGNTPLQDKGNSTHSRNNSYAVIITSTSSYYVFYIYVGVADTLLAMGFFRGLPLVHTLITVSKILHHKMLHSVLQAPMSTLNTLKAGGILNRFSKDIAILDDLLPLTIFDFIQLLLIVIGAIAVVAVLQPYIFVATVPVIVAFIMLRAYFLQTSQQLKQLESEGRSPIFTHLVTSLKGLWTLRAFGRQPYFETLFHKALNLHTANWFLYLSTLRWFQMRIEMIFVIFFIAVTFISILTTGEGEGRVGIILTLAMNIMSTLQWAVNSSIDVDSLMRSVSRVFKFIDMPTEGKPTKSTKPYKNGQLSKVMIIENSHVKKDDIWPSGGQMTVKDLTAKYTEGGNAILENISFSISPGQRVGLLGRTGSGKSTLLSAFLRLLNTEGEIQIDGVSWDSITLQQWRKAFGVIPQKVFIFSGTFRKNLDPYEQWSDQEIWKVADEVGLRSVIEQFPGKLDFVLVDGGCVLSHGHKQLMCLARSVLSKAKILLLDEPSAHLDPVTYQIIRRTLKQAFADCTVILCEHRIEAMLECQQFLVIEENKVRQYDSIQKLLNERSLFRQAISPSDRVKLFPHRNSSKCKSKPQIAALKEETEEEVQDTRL
T2 sequence (P13569 with tags, fused parts or gaps DEL508-508): as above

Row | SMILES | TECC24 AUC fold over DMSO [1] | EC50 [2] [nM] | Emax [2] [%]
1 | CCc1cc2c(OCc3ccc(OC(F)(F)F)cc3)c(C(=O)N[C@H](C(=O)O)C(C)(C)C)ccc2s1 [Compound 33-23, (2S)-2-(2-ethyl-4-((4-(trifluoromethoxy)benzyl)oxy)-3a,7a-benzo[b]thiophene-5-carboxamido)-3,3-dimethylbutanoic acid] | A (“A” refers to AUC @10 μM > 6) | 1130 | 315
2 | CCC(C)(C)[C@H](NC(=O)c1ccc2sc(OC)cc2c1OCc1ccc(C(F)(F)F)cc1)C(=O)O [Compound 33-14, (2S)-2-(2-methoxy-4-((4-(trifluoromethyl)benzyl)oxy)-benzo[b]thiophene-5-carboxamido)-3,3-dimethylpentanoic acid] | A (“A” refers to AUC @10 μM > 6) | 1980 | 422
3 | CCC(C)(C)[C@H](NC(=O)c1ccc2cc(C)sc2c1OCc1ccc(OC(F)(F)F)cc1)C(=O)O [Compound 33-18, (2S)-3,3-dimethyl-2-(2-methyl-7-((4-(trifluoromethoxy)benzyl)oxy)-benzo[b]thiophene-6-carboxamido)pentanoic acid] | A (“A” refers to AUC @10 μM > 6) | 1150 | 217
4 | Cc1c(Cl)sc2ccc(C(=O)N[C@H](C(=O)O)C3(C)CCC3)c(OCc3ccc(C(F)(F)F)cc3)c12 [Compound 34-2, (S)-2-(2-chloro-3-methyl-4-((4-(trifluoromethyl)benzyl)oxy)-benzo[b]thiophene-5-carboxamido)-2-(1-methylcyclobutyl)acetic acid] | A (“A” refers to AUC @10 μM > 6) | 1250 | 133
5 | Cc1c(Cl)sc2ccc(C(=O)N[C@H](C(=O)O)C3(C)CC3)c(OCc3ccc(OC(F)(F)F)cc3)c12 [Compound 34-5, (S)-2-(2-chloro-3-methyl-4-((4-(trifluoromethoxy)benzyl)oxy)-benzo[b]thiophene-5-carboxamido)-2-(1-methylcyclopropyl)acetic acid] | A (“A” refers to AUC @10 μM > 6) | 509 | 106
6 | CCC(C)(C)[C@H](NC(=O)c1ccc2cc(C(F)(F)F)sc2c1OCc1ccc(OC(F)(F)F)cc1)C(=O)O [Compound 33-29, (2S)-3,3-dimethyl-2-(7-((4-(trifluoromethoxy)benzyl)oxy)-2-(trifluoromethyl)-benzo[b]thiophene-6-carboxamido)pentanoic acid] | B (“B” refers to AUC @10 μM between 4-6) | 854 | 152
7 | Cc1nc2c(OCc3ccc(C(F)(F)F)cc3)c(C(=O)N[C@H](C(=O)O)C(C)(C)C)ccc2s1 [Compound 35-3, (2S)-3,3-dimethyl-2-[[2-methyl-4-[[4-(trifluoromethyl)phenyl]methoxy]-1,3-benzothiazole-5-carbonyl]amino]butanoic acid] | A (“A” refers to AUC @10 μM > 6) | 662 | 286
8 | CC(C)(C)[C@H](NC(=O)c1ccc2cc(Cl)sc2c1OCc1ccc(C(F)(F)F)cc1)C(=O)O [Compound 33-33, (2S)-2-(2-chloro-7-((4-(trifluoromethyl)benzyl)oxy)-benzo[b]thiophene-6-carboxamido)-3,3-dimethylbutanoic acid] | B (“B” refers to AUC @10 μM between 4-6) | 503 | 177
9 | CC(C)(C)[C@H](NC(=O)c1ccc2sc(Cl)cc2c1OCc1ccc(C(F)(F)F)cc1)C(=O)O [Compound 33-5, (2S)-2-(2-chloro-4-((4-(trifluoromethyl)benzyl)oxy)-benzo[b]thiophene-5-carboxamido)-3,3-dimethylbutanoic acid] | A (“A” refers to AUC @10 μM > 6) | 262 | 251
10 | CC(C)(C)[C@H](NC(=O)c1ccc2sccc2c1OCc1ccc(SC(F)(F)F)cc1)C(=O)O [Compound 32-11, (2S)-3,3-dimethyl-2-(4-((4-((trifluoromethyl)thio)benzyl)oxy)-benzo[b]thiophene-5-carboxamido)butanoic acid] | B (“B” refers to AUC @10 μM between 4-6) | 1040 | 81.3
11 | CCC(C)(C)[C@H](NC(=O)c1ccc2sc(C(F)F)cc2c1OCc1ccc(C(F)(F)F)cc1)C(=O)O [Compound 33-36, (2S)-2-(2-(difluoromethyl)-4-((4-(trifluoromethyl)benzyl)oxy)-benzo[b]thiophene-5-carboxamido)-3,3-dimethylpentanoic acid] | A (“A” refers to AUC @10 μM > 6) | 750 | 165
12 | CCc1cc2c(OCc3ccc(C(F)(F)F)cc3)c(C(=O)N[C@H](C(=O)O)C(C)(C)CC)ccc2s1 [Compound 33-27, (2S)-2-(2-ethyl-4-((4-(trifluoromethyl)benzyl)oxy)-benzo[b]thiophene-5-carboxamido)-3,3-dimethylpentanoic acid] | A (“A” refers to AUC @10 μM > 6) | 309 | 262
13 | CCC(C)(C)[C@H](NC(=O)c1ccc2sccc2c1OCC1CCC(F)(F)CC1)C(=O)O [Compound 32-10, (2S)-2-(4-((4,4-difluorocyclohexyl)methoxy)-benzo[b]thiophene-5-carboxamido)-3,3-dimethylpentanoic acid] | C (“C” refers to AUC @10 μM < 4) | 7310 | 85.3
14 | Cc1cc2ccc(C(=O)N[C@H](C(=O)O)C(C)(C)C)c(OCc3ccc(OC(F)(F)F)cc3)c2s1 [Compound 33-8, (2S)-3,3-dimethyl-2-(2-methyl-7-((4-(trifluoromethoxy)benzyl)oxy)-benzo[b]thiophene-6-carboxamido)butanoic acid] | A (“A” refers to AUC @10 μM > 6) | 658 | 155
